From ChEMBL document CHEMBL3991601, “The target landscape of clinical kinase drugs” (Science, 2017)
The source made the active and inactive calls. Cut-off read from the data, not from the text of the source, for most assays here: actives have a measured Kd and inactives only a lower limit.

Experiments:
[1] = target: MAP/microtubule affinity-regulating kinase 3 (Homo sapiens, UniProt P27448)
[2] = target: Tyrosine-protein kinase ABL2 (Homo sapiens, UniProt P42684)
[3] = target: Receptor-interacting serine/threonine-protein kinase 3 (Homo sapiens, UniProt Q9Y572)
Receptor-interacting serine/threonine-protein kinase 3, sequence (Q9Y572 whole entry, canonical isoform): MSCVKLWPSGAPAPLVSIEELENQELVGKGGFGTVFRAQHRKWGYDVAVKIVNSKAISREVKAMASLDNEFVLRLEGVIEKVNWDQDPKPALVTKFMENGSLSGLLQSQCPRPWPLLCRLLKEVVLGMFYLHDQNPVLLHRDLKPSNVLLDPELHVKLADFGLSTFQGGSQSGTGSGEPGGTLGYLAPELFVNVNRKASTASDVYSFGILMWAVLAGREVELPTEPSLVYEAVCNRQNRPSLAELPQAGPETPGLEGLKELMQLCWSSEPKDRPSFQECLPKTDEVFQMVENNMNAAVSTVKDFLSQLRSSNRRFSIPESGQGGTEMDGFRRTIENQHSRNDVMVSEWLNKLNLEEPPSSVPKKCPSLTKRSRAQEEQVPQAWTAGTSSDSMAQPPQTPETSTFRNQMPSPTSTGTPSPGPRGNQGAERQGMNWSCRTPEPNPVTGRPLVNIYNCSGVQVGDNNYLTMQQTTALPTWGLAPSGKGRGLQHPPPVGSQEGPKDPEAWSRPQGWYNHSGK

[4] = target: S-adenosylmethionine synthase isoform type-2 (Homo sapiens, UniProt P31153)
[5] = target: T1, Membrane-associated tyrosine- and threonine-specific cdc2-inhibitory kinase (Homo sapiens, UniProt Q99640)
T1 sequence (Q99640 whole entry): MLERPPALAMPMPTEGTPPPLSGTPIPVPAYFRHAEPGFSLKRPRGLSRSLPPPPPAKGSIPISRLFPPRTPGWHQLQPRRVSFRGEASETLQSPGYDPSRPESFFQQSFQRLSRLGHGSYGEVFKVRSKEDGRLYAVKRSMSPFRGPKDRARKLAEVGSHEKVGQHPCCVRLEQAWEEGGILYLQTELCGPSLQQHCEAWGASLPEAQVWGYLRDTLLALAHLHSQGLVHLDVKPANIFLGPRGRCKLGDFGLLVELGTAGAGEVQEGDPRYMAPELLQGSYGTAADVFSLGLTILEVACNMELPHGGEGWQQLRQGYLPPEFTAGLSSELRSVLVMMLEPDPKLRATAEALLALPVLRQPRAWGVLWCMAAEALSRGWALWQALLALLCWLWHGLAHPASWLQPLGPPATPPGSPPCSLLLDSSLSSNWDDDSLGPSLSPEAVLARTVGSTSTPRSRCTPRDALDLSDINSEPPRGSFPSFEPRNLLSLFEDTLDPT

[6] = target: T2, STE20-related kinase adapter protein alpha (Homo sapiens, UniProt Q7RTN6)
T2 sequence (Q7RTN6 whole entry): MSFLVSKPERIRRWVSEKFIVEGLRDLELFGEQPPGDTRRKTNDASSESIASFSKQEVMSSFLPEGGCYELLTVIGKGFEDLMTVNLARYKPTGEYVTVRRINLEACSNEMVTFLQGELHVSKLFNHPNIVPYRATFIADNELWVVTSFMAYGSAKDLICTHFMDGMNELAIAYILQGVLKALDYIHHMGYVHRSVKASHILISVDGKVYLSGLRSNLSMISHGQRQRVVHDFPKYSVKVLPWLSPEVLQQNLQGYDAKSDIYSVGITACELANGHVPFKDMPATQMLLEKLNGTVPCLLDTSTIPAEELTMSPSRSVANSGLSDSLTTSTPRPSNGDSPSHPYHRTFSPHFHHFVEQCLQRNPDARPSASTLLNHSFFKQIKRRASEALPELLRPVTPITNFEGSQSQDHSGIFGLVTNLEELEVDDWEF

[7] = target: Fibroblast growth factor receptor 1 (Homo sapiens, UniProt P11362)
Fibroblast growth factor receptor 1, sequence (P11362 whole entry): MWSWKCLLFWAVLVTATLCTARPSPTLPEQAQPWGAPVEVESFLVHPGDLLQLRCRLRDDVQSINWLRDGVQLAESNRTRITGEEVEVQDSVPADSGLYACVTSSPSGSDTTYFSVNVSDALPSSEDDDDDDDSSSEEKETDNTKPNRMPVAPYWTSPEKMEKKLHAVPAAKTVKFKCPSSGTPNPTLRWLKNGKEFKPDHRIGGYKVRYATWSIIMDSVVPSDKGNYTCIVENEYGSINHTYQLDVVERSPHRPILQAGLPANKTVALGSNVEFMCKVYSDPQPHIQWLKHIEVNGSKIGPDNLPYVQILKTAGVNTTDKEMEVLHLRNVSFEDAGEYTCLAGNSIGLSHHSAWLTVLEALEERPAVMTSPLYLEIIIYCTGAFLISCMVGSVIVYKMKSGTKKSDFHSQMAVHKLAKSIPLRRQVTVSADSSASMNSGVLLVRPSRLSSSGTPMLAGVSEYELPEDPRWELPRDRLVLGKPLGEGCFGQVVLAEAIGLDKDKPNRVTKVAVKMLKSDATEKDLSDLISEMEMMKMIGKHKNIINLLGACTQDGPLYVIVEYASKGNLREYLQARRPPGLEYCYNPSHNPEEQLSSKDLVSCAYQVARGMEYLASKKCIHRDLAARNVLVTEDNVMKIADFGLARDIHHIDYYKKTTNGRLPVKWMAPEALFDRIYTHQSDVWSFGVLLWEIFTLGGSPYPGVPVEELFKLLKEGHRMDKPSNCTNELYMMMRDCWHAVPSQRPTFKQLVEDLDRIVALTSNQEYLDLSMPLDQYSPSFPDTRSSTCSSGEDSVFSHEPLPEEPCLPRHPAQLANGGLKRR

[8] = target: T3, Serine/threonine-protein kinase TAO2 (Homo sapiens, UniProt Q9UL54)
T3 sequence (Q9UL54 whole entry): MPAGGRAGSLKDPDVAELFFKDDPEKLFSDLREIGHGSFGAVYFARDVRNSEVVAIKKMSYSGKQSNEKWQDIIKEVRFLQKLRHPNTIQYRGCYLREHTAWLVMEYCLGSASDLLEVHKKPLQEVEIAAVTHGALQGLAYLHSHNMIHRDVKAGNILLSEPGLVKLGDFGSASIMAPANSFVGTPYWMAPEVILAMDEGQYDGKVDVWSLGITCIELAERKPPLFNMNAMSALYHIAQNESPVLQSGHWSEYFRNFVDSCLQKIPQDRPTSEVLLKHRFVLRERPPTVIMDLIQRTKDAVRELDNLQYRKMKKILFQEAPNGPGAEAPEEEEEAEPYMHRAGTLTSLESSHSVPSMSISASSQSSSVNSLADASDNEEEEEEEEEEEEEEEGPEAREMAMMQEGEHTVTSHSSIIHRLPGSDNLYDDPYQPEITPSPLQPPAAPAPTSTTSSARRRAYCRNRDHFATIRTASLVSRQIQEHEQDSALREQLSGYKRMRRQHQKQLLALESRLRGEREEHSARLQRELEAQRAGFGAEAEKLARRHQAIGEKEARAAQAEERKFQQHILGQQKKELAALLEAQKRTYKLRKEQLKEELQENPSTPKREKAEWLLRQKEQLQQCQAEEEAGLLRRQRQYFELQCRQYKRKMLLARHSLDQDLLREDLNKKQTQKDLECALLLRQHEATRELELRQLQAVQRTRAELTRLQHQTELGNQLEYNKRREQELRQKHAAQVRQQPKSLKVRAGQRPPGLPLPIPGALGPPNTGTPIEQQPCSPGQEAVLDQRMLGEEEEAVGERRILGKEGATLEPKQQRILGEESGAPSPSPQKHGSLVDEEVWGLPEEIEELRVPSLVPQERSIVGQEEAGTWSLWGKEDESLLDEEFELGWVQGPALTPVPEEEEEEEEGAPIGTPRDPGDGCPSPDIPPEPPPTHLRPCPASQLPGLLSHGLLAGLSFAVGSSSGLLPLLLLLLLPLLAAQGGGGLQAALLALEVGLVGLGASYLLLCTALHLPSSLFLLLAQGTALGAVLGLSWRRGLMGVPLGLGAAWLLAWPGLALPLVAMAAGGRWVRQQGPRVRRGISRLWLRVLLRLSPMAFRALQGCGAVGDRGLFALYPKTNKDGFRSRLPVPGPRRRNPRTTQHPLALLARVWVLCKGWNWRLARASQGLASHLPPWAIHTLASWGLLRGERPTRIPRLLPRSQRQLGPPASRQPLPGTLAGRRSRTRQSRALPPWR

[9] = target: Cyclin-dependent kinase 7 (Homo sapiens, UniProt P50613)
Cyclin-dependent kinase 7, sequence (P50613 whole entry): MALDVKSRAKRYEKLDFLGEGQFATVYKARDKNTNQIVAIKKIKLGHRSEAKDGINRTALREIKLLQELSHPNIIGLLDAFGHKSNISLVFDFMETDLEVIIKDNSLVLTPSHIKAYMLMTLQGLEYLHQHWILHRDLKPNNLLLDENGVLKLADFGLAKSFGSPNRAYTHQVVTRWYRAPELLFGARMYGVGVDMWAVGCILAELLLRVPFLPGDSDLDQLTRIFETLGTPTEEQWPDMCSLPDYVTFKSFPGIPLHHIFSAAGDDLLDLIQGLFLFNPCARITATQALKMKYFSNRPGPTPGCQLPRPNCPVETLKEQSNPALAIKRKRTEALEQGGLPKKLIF

[10] = target: Glycogen synthase kinase-3 beta (Homo sapiens, UniProt P49841)
[11] = target: 26S proteasome regulatory subunit 6B (Homo sapiens, UniProt P43686)
26S proteasome regulatory subunit 6B, sequence (P43686 whole entry): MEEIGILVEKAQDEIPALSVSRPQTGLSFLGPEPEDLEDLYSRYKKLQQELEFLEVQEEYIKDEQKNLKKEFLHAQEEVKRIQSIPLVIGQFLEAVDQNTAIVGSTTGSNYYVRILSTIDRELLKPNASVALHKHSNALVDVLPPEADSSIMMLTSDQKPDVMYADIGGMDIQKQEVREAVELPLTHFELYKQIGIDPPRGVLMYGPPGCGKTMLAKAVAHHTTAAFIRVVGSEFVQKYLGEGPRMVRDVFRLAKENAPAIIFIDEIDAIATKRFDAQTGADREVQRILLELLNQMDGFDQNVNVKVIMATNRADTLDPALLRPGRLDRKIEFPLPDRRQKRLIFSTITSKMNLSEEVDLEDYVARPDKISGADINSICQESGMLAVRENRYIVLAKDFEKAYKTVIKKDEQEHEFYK

Actin-related protein 2 = Actin-related protein 2 (Homo sapiens, UniProt P61160)
[12] = target: Mitogen-activated protein kinase kinase kinase 20 (Homo sapiens, UniProt Q9NYL2)
Mitogen-activated protein kinase kinase kinase 20, sequence (Q9NYL2 whole entry): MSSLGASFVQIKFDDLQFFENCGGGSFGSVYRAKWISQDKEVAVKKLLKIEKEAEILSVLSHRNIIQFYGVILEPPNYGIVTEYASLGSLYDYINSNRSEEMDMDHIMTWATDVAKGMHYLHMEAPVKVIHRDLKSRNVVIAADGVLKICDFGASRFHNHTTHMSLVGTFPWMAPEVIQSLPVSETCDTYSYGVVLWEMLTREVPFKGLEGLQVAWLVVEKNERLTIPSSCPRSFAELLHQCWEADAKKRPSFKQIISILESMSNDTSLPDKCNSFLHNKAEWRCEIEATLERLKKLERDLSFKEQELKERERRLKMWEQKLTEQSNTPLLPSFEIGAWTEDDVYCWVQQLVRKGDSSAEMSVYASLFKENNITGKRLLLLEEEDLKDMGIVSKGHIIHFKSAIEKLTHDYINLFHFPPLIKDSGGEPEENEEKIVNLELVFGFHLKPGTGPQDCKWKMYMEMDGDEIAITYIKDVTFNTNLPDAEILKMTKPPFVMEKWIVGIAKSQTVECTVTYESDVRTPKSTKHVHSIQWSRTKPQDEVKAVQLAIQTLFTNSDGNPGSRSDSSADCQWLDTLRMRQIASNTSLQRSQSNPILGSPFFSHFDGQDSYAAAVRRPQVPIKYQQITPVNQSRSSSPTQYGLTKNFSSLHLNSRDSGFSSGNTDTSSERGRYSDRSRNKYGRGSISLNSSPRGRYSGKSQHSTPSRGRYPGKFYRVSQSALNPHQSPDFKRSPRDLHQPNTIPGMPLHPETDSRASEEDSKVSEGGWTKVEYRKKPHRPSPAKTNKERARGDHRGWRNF

[13] = target: Tyrosine-protein kinase Fer (Homo sapiens, UniProt P16591)
Note: in the data inactive means no Kd found up to 30 µM.

MAP/microtubule affinity-regulating kinase 3, sequence (P27448 whole entry): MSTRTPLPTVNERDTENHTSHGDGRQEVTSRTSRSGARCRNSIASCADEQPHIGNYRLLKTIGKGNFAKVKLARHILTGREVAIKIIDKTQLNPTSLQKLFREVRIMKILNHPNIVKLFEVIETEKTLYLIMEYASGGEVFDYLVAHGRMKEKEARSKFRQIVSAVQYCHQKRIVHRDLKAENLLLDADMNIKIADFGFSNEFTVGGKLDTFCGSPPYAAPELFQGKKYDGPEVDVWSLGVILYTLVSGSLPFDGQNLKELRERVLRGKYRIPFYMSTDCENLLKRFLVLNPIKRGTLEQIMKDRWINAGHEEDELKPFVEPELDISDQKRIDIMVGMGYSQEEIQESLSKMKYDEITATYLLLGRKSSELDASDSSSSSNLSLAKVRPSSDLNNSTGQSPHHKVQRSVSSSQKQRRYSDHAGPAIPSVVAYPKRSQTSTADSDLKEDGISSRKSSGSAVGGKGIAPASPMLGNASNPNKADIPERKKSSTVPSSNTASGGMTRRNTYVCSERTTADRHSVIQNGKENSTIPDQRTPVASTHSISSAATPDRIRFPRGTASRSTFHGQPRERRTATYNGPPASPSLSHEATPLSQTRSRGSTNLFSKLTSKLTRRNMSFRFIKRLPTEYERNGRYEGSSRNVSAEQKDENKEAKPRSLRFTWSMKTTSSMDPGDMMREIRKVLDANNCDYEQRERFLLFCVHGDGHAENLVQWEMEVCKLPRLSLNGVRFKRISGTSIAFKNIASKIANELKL
Tyrosine-protein kinase ABL2, sequence (P42684 whole entry): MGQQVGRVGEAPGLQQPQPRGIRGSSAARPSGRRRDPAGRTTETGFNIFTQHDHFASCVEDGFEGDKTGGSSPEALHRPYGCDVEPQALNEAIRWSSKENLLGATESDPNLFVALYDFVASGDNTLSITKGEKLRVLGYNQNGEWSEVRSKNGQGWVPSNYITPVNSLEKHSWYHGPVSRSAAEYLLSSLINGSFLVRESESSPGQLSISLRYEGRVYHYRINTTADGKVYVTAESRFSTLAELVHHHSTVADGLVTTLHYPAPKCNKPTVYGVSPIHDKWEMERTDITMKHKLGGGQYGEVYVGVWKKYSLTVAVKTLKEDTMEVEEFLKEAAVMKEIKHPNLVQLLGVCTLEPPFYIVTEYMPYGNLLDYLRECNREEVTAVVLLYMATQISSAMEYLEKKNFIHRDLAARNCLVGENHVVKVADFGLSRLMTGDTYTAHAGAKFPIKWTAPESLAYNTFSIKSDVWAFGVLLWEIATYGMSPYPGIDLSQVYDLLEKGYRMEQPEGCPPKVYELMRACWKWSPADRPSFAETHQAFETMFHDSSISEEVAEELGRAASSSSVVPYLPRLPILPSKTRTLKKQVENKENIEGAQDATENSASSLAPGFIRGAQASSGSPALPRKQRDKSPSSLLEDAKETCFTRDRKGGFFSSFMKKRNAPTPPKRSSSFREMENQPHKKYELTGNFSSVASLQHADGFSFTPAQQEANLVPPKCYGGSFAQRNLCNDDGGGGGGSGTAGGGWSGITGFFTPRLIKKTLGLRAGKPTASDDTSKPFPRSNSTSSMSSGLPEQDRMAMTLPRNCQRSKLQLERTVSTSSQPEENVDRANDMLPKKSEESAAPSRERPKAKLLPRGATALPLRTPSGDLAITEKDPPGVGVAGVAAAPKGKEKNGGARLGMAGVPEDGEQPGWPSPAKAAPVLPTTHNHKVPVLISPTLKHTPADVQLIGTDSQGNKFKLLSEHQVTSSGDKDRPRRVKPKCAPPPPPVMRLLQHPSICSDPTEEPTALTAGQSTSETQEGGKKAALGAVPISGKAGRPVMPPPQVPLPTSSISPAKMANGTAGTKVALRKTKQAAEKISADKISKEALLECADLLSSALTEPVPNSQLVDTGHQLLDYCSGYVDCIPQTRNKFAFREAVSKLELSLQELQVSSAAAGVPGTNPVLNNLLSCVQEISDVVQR

SMILES | Kd [1] | Kd [2] | Kd [3] | Kd [4] | Kd [5] | Kd [6] | Kd [7] | Kd [8] | Kd [9] | Kd [10] | Kd [11] | Kd (Actin-related protein 2) | Kd [12] | Kd [13]
Cn1ncc(Cl)c1-c1cc(C(=O)N[C@H](CN)Cc2cccc(F)c2)sc1Cl [AFURESERTIB] | > 30 µM (inactive) | > 30 µM (inactive) | > 30 µM (inactive) | > 30 µM (inactive) | > 30 µM (inactive) | > 30 µM (inactive) | > 30 µM (inactive) | > 30 µM (inactive) | > 30 µM (inactive) | > 30 µM (inactive) | > 30 µM (inactive) | > 30 µM (inactive) | > 30 µM (inactive) | > 30 µM (inactive)
CC[C@H](Nc1ncnc2[nH]cnc12)c1nc2cccc(F)c2c(=O)n1-c1ccccc1 [IDELALISIB] | > 30 µM (inactive) | > 30 µM (inactive) | > 30 µM (inactive) | > 30 µM (inactive) | > 30 µM (inactive) | > 30 µM (inactive) | > 30 µM (inactive) | > 30 µM (inactive) | > 30 µM (inactive) | > 30 µM (inactive) | > 30 µM (inactive) | > 30 µM (inactive) | > 30 µM (inactive) | > 30 µM (inactive)
O=C(O)[C@]1(Cc2cccc(Nc3nccs3)n2)CC[C@@H](Oc2cccc(Cl)c2F)CC1 [MK-5108] | > 30 µM (inactive) | 0.077 µM (active) | > 30 µM (inactive) | > 30 µM (inactive) | > 30 µM (inactive) | > 30 µM (inactive) | > 30 µM (inactive) | > 30 µM (inactive) | > 30 µM (inactive) | > 30 µM (inactive) | > 30 µM (inactive) | > 30 µM (inactive) | > 30 µM (inactive) | 1.54 µM (active)
CN(C)C(=O)c1cc2cnc(Nc3ccc(N4CCNCC4)cn3)nc2n1C1CCCC1 [RIBOCICLIB] | > 30 µM (inactive) | > 30 µM (inactive) | > 30 µM (inactive) | > 30 µM (inactive) | > 30 µM (inactive) | > 30 µM (inactive) | > 30 µM (inactive) | > 30 µM (inactive) | > 30 µM (inactive) | > 30 µM (inactive) | > 30 µM (inactive) | > 30 µM (inactive) | > 30 µM (inactive) | > 30 µM (inactive)
C[C@@H]1CN(Cc2ccc(F)cc2)[C@@H](C)CN1C(=O)c1cc2c(C(=O)C(=O)N(C)C)cn(C)c2cc1Cl [TALMAPIMOD] | > 30 µM (inactive) | > 30 µM (inactive) | > 30 µM (inactive) | > 30 µM (inactive) | > 30 µM (inactive) | > 30 µM (inactive) | > 30 µM (inactive) | > 30 µM (inactive) | > 30 µM (inactive) | > 30 µM (inactive) | > 30 µM (inactive) | 0.004 µM | > 30 µM (inactive) | > 30 µM (inactive)
O=C1NC(=O)/C(=C/c2ccc3nccc(-c4ccncc4)c3c2)S1 [GSK-1059615] | > 30 µM (inactive) | > 30 µM (inactive) | > 30 µM (inactive) | > 30 µM (inactive) | > 30 µM (inactive) | > 30 µM (inactive) | > 30 µM (inactive) | > 30 µM (inactive) | > 30 µM (inactive) | > 30 µM (inactive) | > 30 µM (inactive) | > 30 µM (inactive) | > 30 µM (inactive) | > 30 µM (inactive)
CO[C@H]1C[C@@H]2CC[C@@H](C)[C@@](O)(O2)C(=O)C(=O)N2CCCC[C@H]2C(=O)O[C@H]([C@H](C)C[C@@H]2CC[C@@H](OCCO)[C@H](OC)C2)CC(=O)[C@H](C)/C=C(\C)[C@@H](O)[C@@H](OC)C(=O)[C@H](C)C[C@H](C)/C=C/C=C/C=C/1C [EVEROLIMUS] | > 30 µM (inactive) | > 30 µM (inactive) | > 30 µM (inactive) | > 30 µM (inactive) | > 30 µM (inactive) | > 30 µM (inactive) | > 30 µM (inactive) | > 30 µM (inactive) | > 30 µM (inactive) | > 30 µM (inactive) | > 30 µM (inactive) | > 30 µM (inactive) | > 30 µM (inactive) | > 30 µM (inactive)
